Results on one compound are retold here after US20210348120A1, “Polarised Three-Dimensional Cellular Aggregates” (CAMBRIDGE ENTERPRISE LIMITED, priority 2018, published 2021).

In this test the test system is gastruloid cardiac portion. The test is described as follows: Calcium imaging of the gastruloid cardiac portion. In kind it is cell-based, mouse. The conditions noted are these: 168 h gastruloids, 1 μM, light sheet imaging with Cal-520. The procedure: To image calcium fluxes, gastruloids were incubated for 1 h with 8 μM Cal-520 (AAT Bioquest) at 37° C., 5% CO2. Gastruloids were then transferred to fresh medium before imaging. Imaging was performed with a Light sheet Z1 microscope (Zeiss) equipped with an environmental chamber to maintain gastruloids at 37° C. and 5% CO2. For imaging, gastruloids were embedded in 1% low melt agarose and the chamber was filled with culture medium. Nifidepine (Sigma Aldrich, 10 μM) and Isoproterenol (Isoprenaline hydrochloride, Sigma 15627, 1 μM) were added with a syringe directly to the imaging chamber during acquisition. The analysis of calcium spikes was performed with the Fiji Stacks-plot Z-Axis profile plugin. The baseline intensity was normalized to the minimum value over 10 sec.

On to `CC(C)NCC(O)c1ccc(O)c(O)c1` (stereo not shown) [isoproterenol, Isoproterenol], for which the calcium spiking frequency result is recorded as “increase in spiking frequency”.
